Measurements published in US20190119193A1, “COMPOSITION FOR REGULATING PLANT GROWTH, METHOD FOR TREATING PLANTS THEREWITH, AND ACTIVE INGREDIENT THEREOF” (Ivan Aleksandrovich Starikov, priority 2016, published 2019).

Legend:
Type in all cases: in vivo
Conditions in all cases: for Germinative energy: day 3; for Germinative capacity / Number of lateral roots / Sprout height / Taproot length: day 7
[1] = tested on: tomato seeds (“Volgogradets” variety); test: Laboratory tests of DMOA and DEOA for tomato seeds
Experimental: (§1) After that DMOA and DEOA were dissolved in dimethyl sulfoxide to give solutions of 10 g/L concentration, then water was added to give aqueous solutions of DMOA with concentrations of 5.5·10^−5 M, 5.5·10^−6 M, 5.5·10^−7 M, 5.5·10^−8 M, 5.5·10^−9 M and DEOA with concentrations of 4.8·10^−5 M, 4.8·10^−6 M, 4.8·10^−7 M, 4.8·10^−8 M, 4.8·10^−9 M.
(§2) The obtained aqueous solutions of DMOA and DEOA were tested in the Scientific Center of Soil-Ecological Reasearch of the Federal State-Funded Educational Institution of Higher Education “Russian State Agrarian University—Moscow Agricultural Academy named after K. A. Timiryazev” (Moscow, 2015) according to the method described by T. A. Sergeeva (Method of laboratory testing of herbicides, Plant protection, 1963, No. 2, pp. 42-43). The primary laboratory screening of DMOA and DEOA was carried out on the seeds of five different crops: sunflower of “Voronezh 638” variety, soybean of “Vilana” variety, alfalfa of “Vega” variety, cucumber of “Nezhinsky” variety and tomato of “Volgogradets” variety.
(§3) Water was used as a reference.
(§4) A single experiment was carried out in a Petri dish. A circle of filter paper was laid at the bottom of the dish and treated with 5 ml of the work solution selected for the experiment. After that 25 seeds were uniformly laid on the surface of the treated filter paper. The Petri dish was kept at a temperature of 21-23° C. with illumination by fluorescent lamps for 7 days. The fourfold replication of the experiment within a single variant was applied.
(§5) The experiment identified the number and percentage of normally germinated seeds on day 3 (germinative energy) and on day 7 (germinative capacity) after the beginning of the experiment. On day 7 the main biometric parameters were also measured: sprout height (mm), taproot length (mm) and number of lateral roots (pcs).
(§6) The results were processed with the method of variance analysis with the help of STRAZ software in order to get the LSD0.05 (least significant difference between the test results on 5% significance level).

[2] = tested on: cucumber seeds (“Nezhinsky” variety); test: Laboratory tests of DMOA and DEOA for cucumber seeds
Experimental: as §1, §2, §3, §4, §5, §6

[3] = tested on: sunflower seeds (“Voronezh 638” variety); test: Laboratory tests of DMOA and DEOA for sunflower seeds
Experimental: as §1, §2, §3, §4, §5, §6

[4] = tested on: alfalfa seeds (“Vega” variety); test: Laboratory tests of DMOA and DEOA for alfalfa seeds
Experimental: as §1, §2, §3, §4, §5, §6

## CCOC(=O)C=C([O-])C(=O)OCC.[Na+] [DEOA, sodium salt of diethyl ester of oxaloacetic acid]
[1]; 4.8 · 10^−5 M
  Germinative energy: 93%
  Germinative capacity: 95%
  Number of lateral roots: 0.5 ↑ pcs.
  Sprout height: 25.3 mm
  Taproot length: 80.1 mm
[1]; 4.8 · 10^−6 M
  Germinative energy: 75%
  Germinative capacity: 80%
  Number of lateral roots: 0.2 pcs.
  Sprout height: 25.7 mm
  Taproot length: 77.7 mm
[1]; 4.8 · 10^−7 M
  Germinative energy: 88%
  Germinative capacity: 91%
  Number of lateral roots: 0.4 pcs.
  Sprout height: 26.3 mm
  Taproot length: 84.6 ↑ mm
[1]; 4.8 · 10^−8 M
  Germinative energy: 74%
  Germinative capacity: 76%
  Number of lateral roots: 0.2 pcs.
  Sprout height: 22.7 mm
  Taproot length: 77.9 mm
[1]; 4.8 · 10^−9 M
  Germinative energy: 82%
  Germinative capacity: 89%
  Number of lateral roots: 0.4 pcs.
  Sprout height: 21.3 ↓ mm
  Taproot length: 77.9 mm
[2]; 4.8 · 10^−5 M
  Germinative energy: 84%
  Germinative capacity: 88%
  Number of lateral roots: 14.3 pcs.
  Sprout height: 27.8 ↑↑ mm
  Taproot length: 83.7 mm
[2]; 4.8 · 10^−6 M
  Germinative energy: 80%
  Germinative capacity: 85%
  Number of lateral roots: 14.4 pcs.
  Sprout height: 22.2 mm
  Taproot length: 88.3 ↑ mm
[2]; 4.8 · 10^−7 M
  Germinative energy: 84%
  Germinative capacity: 88%
  Number of lateral roots: 15.5 ↑ pcs.
  Sprout height: 22.3 mm
  Taproot length: 89.3 ↑ mm
[2]; 4.8 · 10^−8 M
  Germinative energy: 88%
  Germinative capacity: 95%
  Number of lateral roots: 12.4 pcs.
  Sprout height: 19.3 mm
  Taproot length: 79.8 mm
[2]; 4.8 · 10^−9 M
  Germinative energy: 91%
  Germinative capacity: 93%
  Number of lateral roots: 13.7 pcs.
  Sprout height: 21.6 mm
  Taproot length: 93.8 ↑↑ mm
[3]; 4.8 · 10^−5 M
  Germinative energy: 87%
  Germinative capacity: 93%
  Number of lateral roots: 9.6 pcs.
  Sprout height: 40.1 ↑↑↑↑↑ mm
  Taproot length: 38.4 mm
[3]; 4.8 · 10^−6 M
  Germinative energy: 80%
  Germinative capacity: 90%
  Number of lateral roots: 8.9 pcs.
  Sprout height: 29.7 ↑↑ mm
  Taproot length: 44.0 mm
[3]; 4.8 · 10^−7 M
  Germinative energy: 93 ↑ %
  Germinative capacity: 93%
  Number of lateral roots: 6.9 pcs.
  Sprout height: 29.2 ↑↑ mm
  Taproot length: 37.0 mm
[3]; 4.8 · 10^−8 M
  Germinative energy: 97 ↑ %
  Germinative capacity: 99 ↑ %
  Number of lateral roots: 11.2 ↑ pcs.
  Sprout height: 27.7 ↑ mm
  Taproot length: 56.3 ↑↑ mm
[3]; 4.8 · 10^−9 M
  Germinative energy: 81%
  Germinative capacity: 87%
  Number of lateral roots: 9.5 pcs.
  Sprout height: 30.5 ↑↑ mm
  Taproot length: 38.3 mm
[4]; 4.8 · 10^−5 M
  Germinative energy: 93%
  Germinative capacity: 97%
  Number of lateral roots: 0.1 pcs.
  Sprout height: 34.9 ↑↑ mm
  Taproot length: 41.9 ↑ mm
[4]; 4.8 · 10^−6 M
  Germinative energy: 73%
  Germinative capacity: 80%
  Number of lateral roots: 0.0 pcs.
  Sprout height: 32.5 ↑ mm
  Taproot length: 37.5 ↑ mm
[4]; 4.8 · 10^−7 M
  Germinative energy: 88%
  Germinative capacity: 93%
  Number of lateral roots: 0.5 pcs.
  Sprout height: 33.5 ↑ mm
  Taproot length: 32.2 mm
[4]; 4.8 · 10^−8 M
  Germinative energy: 73%
  Germinative capacity: 97%
  Number of lateral roots: 0.1 pcs.
  Sprout height: 32.4 ↑ mm
  Taproot length: 42.3 ↑ mm
[4]; 4.8 · 10^−9 M
  Germinative energy: 80%
  Germinative capacity: 87%
  Number of lateral roots: 0.7 ↑ pcs.
  Sprout height: 28.5 mm
  Taproot length: 34.6 mm

## Sodium salt of dimethyl ester of oxaloacetic acid [DMOA]
[1]; 5.5 · 10^−5 M
  Germinative energy: 93%
  Germinative capacity: 95%
  Number of lateral roots: 0.2 pcs.
  Sprout height: 25.9 mm
  Taproot length: 83.2 ↑ mm
[1]; 5.5 · 10^−6 M
  Germinative energy: 88%
  Germinative capacity: 90%
  Number of lateral roots: 0.5 ↑ pcs.
  Sprout height: 24.6 mm
  Taproot length: 79.8 mm
[1]; 5.5 · 10^−7 M
  Germinative energy: 88%
  Germinative capacity: 98 ↑ %
  Number of lateral roots: 0.6 ↑ pcs.
  Sprout height: 23.7 mm
  Taproot length: 74.5 mm
[1]; 5.5 · 10^−8 M
  Germinative energy: 98 ↑ %
  Germinative capacity: 98 ↑ %
  Number of lateral roots: 0.1 pcs.
  Sprout height: 23.4 mm
  Taproot length: 83.6 ↑ mm
[1]; 5.5 · 10^−9 M
  Germinative energy: 88%
  Germinative capacity: 90%
  Number of lateral roots: 0.7 ↑ pcs.
  Sprout height: 24.4 mm
  Taproot length: 86.9 ↑↑ mm
[2]; 5.5 · 10^−5 M
  Germinative energy: 86%
  Germinative capacity: 82%
  Number of lateral roots: 11.9 pcs.
  Sprout height: 19.0 mm
  Taproot length: 74.2 mm
[2]; 5.5 · 10^−6 M
  Germinative energy: 88%
  Germinative capacity: 91%
  Number of lateral roots: 12.3 pcs.
  Sprout height: 15.9 mm
  Taproot length: 75.6 mm
[2]; 5.5 · 10^−7 M
  Germinative energy: 85%
  Germinative capacity: 94%
  Number of lateral roots: 13.7 pcs.
  Sprout height: 17.7 mm
  Taproot length: 78.1 mm
[2]; 5.5 · 10^−8 M
  Germinative energy: 86%
  Germinative capacity: 78%
  Number of lateral roots: 13.5 pcs.
  Sprout height: 17.1 mm
  Taproot length: 74.8 mm
[2]; 5.5 · 10^−9 M
  Germinative energy: 82%
  Germinative capacity: 95%
  Number of lateral roots: 12.9 pcs.
  Sprout height: 18.2 mm
  Taproot length: 82.5 mm
[3]; 5.5 · 10^−5 M
  Germinative energy: 80%
  Germinative capacity: 90%
  Number of lateral roots: 9.7 pcs.
  Sprout height: 23.8 mm
  Taproot length: 35.2 mm
[3]; 5.5 · 10^−6 M
  Germinative energy: 83%
  Germinative capacity: 93%
  Number of lateral roots: 8.5 pcs.
  Sprout height: 23.0 mm
  Taproot length: 46.4 ↑ mm
[3]; 5.5 · 10^−7 M
  Germinative energy: 90 ↑ %
  Germinative capacity: 93%
  Number of lateral roots: 8.2 pcs.
  Sprout height: 26.9 ↑ mm
  Taproot length: 29.8 ↓ mm
[3]; 5.5 · 10^−8 M
  Germinative energy: 93 ↑ %
  Germinative capacity: 91%
  Number of lateral roots: 7.8 pcs.
  Sprout height: 28.8 ↑↑ mm
  Taproot length: 38.1 mm
[3]; 5.5 · 10^−9 M
  Germinative energy: 87%
  Germinative capacity: 93%
  Number of lateral roots: 11.6 ↑ pcs.
  Sprout height: 27.8 mm
  Taproot length: 51.9 ↑ mm
[4]; 5.5 · 10^−5 M
  Germinative energy: 93%
  Germinative capacity: 100 ↑ %
  Number of lateral roots: 0.6 ↑ pcs.
  Sprout height: 30.0 mm
  Taproot length: 28.1 mm
[4]; 5.5 · 10^−6 M
  Germinative energy: 88%
  Germinative capacity: 100 ↑ %
  Number of lateral roots: 0.7 ↑ pcs.
  Sprout height: 29.0 mm
  Taproot length: 30.9 mm
[4]; 5.5 · 10^−7 M
  Germinative energy: 88%
  Germinative capacity: 93%
  Number of lateral roots: 0.6 ↑ pcs.
  Sprout height: 28.9 mm
  Taproot length: 31.3 mm
[4]; 5.5 · 10^−8 M
  Germinative energy: 98 ↑ %
  Germinative capacity: 93%
  Number of lateral roots: 0.5 ↑ pcs.
  Sprout height: 28.9 mm
  Taproot length: 31.2 mm
[4]; 5.5 · 10^−9 M
  Germinative energy: 88%
  Germinative capacity: 100 ↑ %
  Number of lateral roots: 0.6 ↑ pcs.
  Sprout height: 30.1 mm
  Taproot length: 35.6 mm
